Reference: patent publication EP0655506B1 (priority 1994, dated 1995)

Legend:
Assay in all cases: SDS activity gel analysis, incorporation of ddNMP relative to dNMP (Example 2)
[1] = biological target: T1, E. coli DNA polymerase I mutant Pol I C-K3, R R S A K T F N F G L I Y G (Escherichia coli, UniProt P00582, A759T/I760F); format: biochemical; conditions: renatured enzyme in gel; 1.5 µM 4dNTPs with or without 30 µM ddTTP; 37 °C 4 hr
T1 construct: the large fragment of E. coli DNA polymerase I (Klenow fragment); made in house; crude lysate, renatured in gel
Experimental: (§1) Mutant DNA polymerases are screened for their ability to incorporate dideoxynucleotides by SDS activity gel analysis. The procedure is a modification of that described by Spanos and Hübscher 91 Methods in Enzymology 263, 1983 and Karawya et al. 135 Analytical Biochemistry 318, 1983. Briefly, 10 ml of cells are induced for 4 to 6 hours and then pelleted. The cell pellet is resuspended in 0.3 ml 25 mM Tris HCl, pH 7.0, 5 mM EDTA. 20 µl of the resuspended cells are mixed with 40 µl of a solution of 1% SDS (sodium dodecyl sulfate), 2% mercaptoethanol, 30 % glycerol, 0.04% bromphenol blue, and 100 mM TrisHCl, pH 6.8. The mixtures are incubated at 37 °C for 5 min, and then 20 µl aliquots are loaded in duplicate onto two SDS polyacrylamide gels. The SDS polyacrylamide gels consist of a resolving gel that contains 8% polyacrylamide, 0.27% bisacrylamide, 190 mM TrisHCl, pH 8.8, 0.05% SDS, and 25 µg/ml denatured salmon sperm DNA, and a stacking gel that consists of 5% polyacrylamide, 0.17% bisacrylamide, 150 mM TrisHCl, pH 6.8, and 0.1% SDS. The two gels are electrophoresed at 100 V for 13 hr at a constant temperature of 13 °C in an electrophoresis buffer consisting of 190 mM TrisHCl and pH 8.8, 0.05% SDS.
(§2) After electrophoresis, the gels are washed over 8 hr in 4 changes of 500 ml each of Renaturation Buffer (50 mM Tris.HCl, pH 7.5, 5 mM magnesium acetate, 1 mM dithiothreitol, 40 mM KCI, 400 µg/ml bovine serum albumin, 16% glycerol and 0.95 mM EDTA) at 4 °C.
(§3) The renatured proteins are assayed for DNA polymerase activity by incubating each of the two gels in 6 ml of Renaturation Buffer, 1.5 µM 4dNTPs, 4 µl of [a-^32P]dATP (800 Ci/mmol, 10 mCi/ml), and 80 µg of purified thioredoxin. One of the mixtures also contains 30 µM ddTTP (a 20-fold molar excess over dTTP). The mixtures are incubated for 4 hr at 37 °C (70 °C for 2 hr for thermophilic DNA polymerases).
(§4) After incubation the gels are washed for 8 hr against four changes of 5% trichloracetic acid and 1% sodium pyrophosphate. The gels are then dried and autoradiographed.
(§5) To determine whether a mutant DNA polymerase is discriminating more or less against ddTTP, the intensities of the radioactive bands are compared on the two gels that were incubated in the presence and absence of ddTTP, and the ratio of the signal in the two bands for the unmodified DNA polymerase is compared with the ratio of the signal in the two bands for each of the mutants.

[2] = biological target: T2, Taq DNA polymerase mutant Tqa C-Q5 (F667Y), R R A A K T I N Y G V L Y G (Thermus aquaticus, UniProt P19821, F667Y); format: biochemical; conditions: renatured enzyme in gel; 1.5 µM 4dNTPs with or without 30 µM ddTTP; 70 °C 2 hr
T2 construct: the large fragment of Taq DNA polymerase (KlenTaq or _Taq DNA polymerase); made in house; crude lysate, renatured in gel
Experimental: as §1, §2, §3, §4, §5

[3] = biological target: T3, E. coli DNA polymerase I mutant Pol I C-K2, R R S A K T F I Y G L I Y G (Escherichia coli, UniProt P00582, A759T/F762Y/I760F/N761I); format: biochemical; conditions: renatured enzyme in gel; 1.5 µM 4dNTPs with or without 30 µM ddTTP; 37 °C 4 hr
T3 construct: the large fragment of E. coli DNA polymerase I (Klenow fragment); made in house; crude lysate, renatured in gel
Experimental: as §1, §2, §3, §4, §5

[4] = biological target: T4, T7 DNA polymerase mutant T7 C-T6, R D N A K T F N F G F L Y G (Escherichia phage T7, UniProt P00581, DEL118-145/I525N/Y526F); format: biochemical, bacteriophage T7; conditions: renatured enzyme in gel; 1.5 µM 4dNTPs with or without 30 µM ddTTP; 37 °C 4 hr
T4 construct: made in house; host or cells: induced cells of a strain producing E. coli thioredoxin; crude lysate, renatured in gel
Experimental: as §1, §2, §3, §4, §5

[5] = biological target: T5, T7 DNA polymerase mutant T7 C-T4, R D N A K A I N F G F L Y G (Escherichia phage T7, UniProt P00581, DEL118-145/F524I/I525N/T523A/Y526F); format: biochemical, bacteriophage T7; conditions: renatured enzyme in gel; 1.5 µM 4dNTPs with or without 30 µM ddTTP; 37 °C 4 hr
T5 construct: made in house; host or cells: induced cells of a strain producing E. coli thioredoxin; crude lysate, renatured in gel
Experimental: as §1, §2, §3, §4, §5

[6] = biological target: T6, T7 DNA polymerase mutant T7 C-T2, R R S A K A I N F G L I Y G (Escherichia phage T7, UniProt P00581, D519R/DEL118-145/F524I/F528L/I525N/L529I/N520S/T523A/Y526F); format: biochemical, bacteriophage T7; conditions: renatured enzyme in gel; 1.5 µM 4dNTPs with or without 30 µM ddTTP; 37 °C 4 hr
T6 construct: made in house; host or cells: induced cells of a strain producing E. coli thioredoxin; crude lysate, renatured in gel
Experimental: as §1, §2, §3, §4, §5

[7] = biological target: T7, T7 DNA polymerase, wild type (T7 WT), R D N A K T F I Y G F L Y G (Escherichia phage T7, UniProt P00581, DEL118-145); format: biochemical, bacteriophage T7
T7 construct: made in house; host or cells: induced cells of a strain producing E. coli thioredoxin; crude lysate, renatured in gel
Experimental: as §1, §2, §3, §4, §5

[8] = biological target: T8, T7 DNA polymerase mutant T7 C-T7, R D N A K T F N Y G F L Y G (Escherichia phage T7, UniProt P00581, DEL118-145/I525N); format: biochemical, bacteriophage T7; conditions: renatured enzyme in gel; 1.5 µM 4dNTPs with or without 30 µM ddTTP; 37 °C 4 hr
T8 construct: made in house; host or cells: induced cells of a strain producing E. coli thioredoxin; crude lysate, renatured in gel
Experimental: as §1, §2, §3, §4, §5

[9] = biological target: T9, T7 DNA polymerase mutant T7 C-T5, R D N A K A I I Y G F L Y G (Escherichia phage T7, UniProt P00581, DEL118-145/F524I/T523A); format: biochemical, bacteriophage T7; conditions: renatured enzyme in gel; 1.5 µM 4dNTPs with or without 30 µM ddTTP; 37 °C 4 hr
T9 construct: made in house; host or cells: induced cells of a strain producing E. coli thioredoxin; crude lysate, renatured in gel
Experimental: as §1, §2, §3, §4, §5

[10] = biological target: T10, T7 DNA polymerase mutant T7 C-T3, R R S A K T F I Y G F L Y G (Escherichia phage T7, UniProt P00581, D519R/DEL118-145/N520S); format: biochemical, bacteriophage T7; conditions: renatured enzyme in gel; 1.5 µM 4dNTPs with or without 30 µM ddTTP; 37 °C 4 hr
T10 construct: made in house; host or cells: induced cells of a strain producing E. coli thioredoxin; crude lysate, renatured in gel
Experimental: as §1, §2, §3, §4, §5

[11] = biological target: T11, T7 DNA polymerase mutant T7 C-T8 (Y526F), R D N A K T F I F G F L Y G (Escherichia phage T7, UniProt P00581, DEL118-145/Y526F); format: biochemical, bacteriophage T7
T11 construct: made in house; host or cells: induced cells of a strain producing E. coli thioredoxin; crude lysate, renatured in gel
Experimental: as §1, §2, §3, §4, §5

[12] = renatured enzyme in gel, 1.5 µM 4dNTPs with or without 30 µM ddTTP, 37 °C 4 hr

T11 sequence (P00581 other isoform, or with tags, fused parts or gaps DEL118-145/Y526F): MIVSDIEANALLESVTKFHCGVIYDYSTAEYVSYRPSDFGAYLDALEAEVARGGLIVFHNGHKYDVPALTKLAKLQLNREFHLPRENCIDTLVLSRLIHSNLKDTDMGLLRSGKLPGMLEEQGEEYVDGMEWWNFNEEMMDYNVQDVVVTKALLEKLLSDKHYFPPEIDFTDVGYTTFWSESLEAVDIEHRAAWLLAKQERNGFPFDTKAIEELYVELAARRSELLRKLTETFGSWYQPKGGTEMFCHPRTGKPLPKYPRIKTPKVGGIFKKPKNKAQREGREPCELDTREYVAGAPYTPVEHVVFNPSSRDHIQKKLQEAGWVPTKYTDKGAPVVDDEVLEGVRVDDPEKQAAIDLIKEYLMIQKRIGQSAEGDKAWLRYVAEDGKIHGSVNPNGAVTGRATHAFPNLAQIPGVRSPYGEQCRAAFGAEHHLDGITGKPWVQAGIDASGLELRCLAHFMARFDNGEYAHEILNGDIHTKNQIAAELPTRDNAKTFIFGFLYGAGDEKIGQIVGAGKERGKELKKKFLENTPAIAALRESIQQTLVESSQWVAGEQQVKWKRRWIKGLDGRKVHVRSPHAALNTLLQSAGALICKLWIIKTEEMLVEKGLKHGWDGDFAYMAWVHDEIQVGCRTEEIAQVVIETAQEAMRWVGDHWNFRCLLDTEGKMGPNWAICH
T11 sequence (P0AA25 2-109, stated change not applied, further chain): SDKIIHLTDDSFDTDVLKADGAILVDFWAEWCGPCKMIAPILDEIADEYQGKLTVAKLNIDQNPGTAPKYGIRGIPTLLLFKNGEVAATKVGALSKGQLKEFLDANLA
T7 sequence (P00581 other isoform, or with tags, fused parts or gaps DEL118-145): as the sequence (P00581 other isoform, or with tags, fused parts or gaps DEL118-145/Y526F) above, with F498Y counted along it
T7 sequence (P0AA25 2-109, stated change not applied, further chain): as the sequence (P0AA25 2-109, stated change not applied, further chain) above
T1 sequence (P00582 324-928 A759T/I760F): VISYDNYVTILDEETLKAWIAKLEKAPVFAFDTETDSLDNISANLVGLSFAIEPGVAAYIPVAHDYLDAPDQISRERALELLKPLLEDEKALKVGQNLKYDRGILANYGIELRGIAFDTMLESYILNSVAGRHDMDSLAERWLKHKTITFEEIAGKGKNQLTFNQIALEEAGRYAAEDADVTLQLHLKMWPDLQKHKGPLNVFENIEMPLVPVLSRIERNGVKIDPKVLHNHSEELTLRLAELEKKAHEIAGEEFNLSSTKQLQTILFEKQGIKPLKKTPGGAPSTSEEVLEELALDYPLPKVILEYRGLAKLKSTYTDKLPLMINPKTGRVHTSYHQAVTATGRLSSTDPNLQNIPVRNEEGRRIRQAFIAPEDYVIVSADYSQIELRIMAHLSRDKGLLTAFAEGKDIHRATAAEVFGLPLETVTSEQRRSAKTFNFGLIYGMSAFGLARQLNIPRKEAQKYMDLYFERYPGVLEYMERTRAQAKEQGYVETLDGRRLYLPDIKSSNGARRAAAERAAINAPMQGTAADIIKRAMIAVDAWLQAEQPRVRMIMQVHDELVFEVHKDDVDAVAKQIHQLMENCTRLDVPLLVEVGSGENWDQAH
T5 sequence (P00581 other isoform, or with tags, fused parts or gaps DEL118-145/T523A/F524I/I525N/Y526F): as the sequence (P00581 other isoform, or with tags, fused parts or gaps DEL118-145/Y526F) above, with T495A, F496I, I497N counted along it
T5 sequence (P0AA25 2-109, stated change not applied, further chain): as the sequence (P0AA25 2-109, stated change not applied, further chain) above
T2 sequence (P19821 236-832 F667Y): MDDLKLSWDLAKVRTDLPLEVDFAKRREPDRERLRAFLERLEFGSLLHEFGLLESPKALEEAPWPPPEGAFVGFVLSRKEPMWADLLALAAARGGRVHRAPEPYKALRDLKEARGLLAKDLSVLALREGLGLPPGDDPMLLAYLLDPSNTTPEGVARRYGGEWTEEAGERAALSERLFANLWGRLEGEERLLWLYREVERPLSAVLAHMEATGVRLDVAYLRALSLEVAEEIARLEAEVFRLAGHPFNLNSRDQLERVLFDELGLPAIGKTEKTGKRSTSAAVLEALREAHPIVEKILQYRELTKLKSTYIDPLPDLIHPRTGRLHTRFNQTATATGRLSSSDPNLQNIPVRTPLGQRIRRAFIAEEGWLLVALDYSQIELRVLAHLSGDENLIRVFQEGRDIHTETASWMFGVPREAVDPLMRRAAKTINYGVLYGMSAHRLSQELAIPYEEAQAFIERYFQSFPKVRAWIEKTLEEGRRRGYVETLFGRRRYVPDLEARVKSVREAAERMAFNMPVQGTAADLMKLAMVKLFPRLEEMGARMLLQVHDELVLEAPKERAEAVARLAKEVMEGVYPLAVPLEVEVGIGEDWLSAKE
T10 sequence (P00581 other isoform, or with tags, fused parts or gaps DEL118-145/D519R/N520S): as the sequence (P00581 other isoform, or with tags, fused parts or gaps DEL118-145/Y526F) above, with D491R, N492S, F498Y counted along it
T10 sequence (P0AA25 2-109, stated change not applied, further chain): as the sequence (P0AA25 2-109, stated change not applied, further chain) above
T6 sequence (P00581 other isoform, or with tags, fused parts or gaps DEL118-145/D519R/N520S/T523A/F524I/I525N/Y526F/F528L/L529I): as the sequence (P00581 other isoform, or with tags, fused parts or gaps DEL118-145/Y526F) above, with D491R, N492S, T495A, F496I, I497N, F500L, L501I counted along it
T6 sequence (P0AA25 2-109, stated change not applied, further chain): as the sequence (P0AA25 2-109, stated change not applied, further chain) above
T8 sequence (P0AA25 2-109, stated change not applied): as the sequence (P0AA25 2-109, stated change not applied, further chain) above
T8 sequence (P00581 other isoform, or with tags, fused parts or gaps DEL118-145/I525N): as the sequence (P00581 other isoform, or with tags, fused parts or gaps DEL118-145/Y526F) above, with I497N, F498Y counted along it
T9 sequence (P0AA25 2-109, stated change not applied): as the sequence (P0AA25 2-109, stated change not applied, further chain) above
T9 sequence (P00581 other isoform, or with tags, fused parts or gaps DEL118-145/T523A/F524I): as the sequence (P00581 other isoform, or with tags, fused parts or gaps DEL118-145/Y526F) above, with T495A, F496I, F498Y counted along it
T4 sequence (P0AA25 2-109, stated change not applied): as the sequence (P0AA25 2-109, stated change not applied, further chain) above
T4 sequence (P00581 other isoform, or with tags, fused parts or gaps DEL118-145/I525N/Y526F): as the sequence (P00581 other isoform, or with tags, fused parts or gaps DEL118-145/Y526F) above, with I497N counted along it
T3 sequence (P00582 324-928 A759T/I760F/N761I/F762Y): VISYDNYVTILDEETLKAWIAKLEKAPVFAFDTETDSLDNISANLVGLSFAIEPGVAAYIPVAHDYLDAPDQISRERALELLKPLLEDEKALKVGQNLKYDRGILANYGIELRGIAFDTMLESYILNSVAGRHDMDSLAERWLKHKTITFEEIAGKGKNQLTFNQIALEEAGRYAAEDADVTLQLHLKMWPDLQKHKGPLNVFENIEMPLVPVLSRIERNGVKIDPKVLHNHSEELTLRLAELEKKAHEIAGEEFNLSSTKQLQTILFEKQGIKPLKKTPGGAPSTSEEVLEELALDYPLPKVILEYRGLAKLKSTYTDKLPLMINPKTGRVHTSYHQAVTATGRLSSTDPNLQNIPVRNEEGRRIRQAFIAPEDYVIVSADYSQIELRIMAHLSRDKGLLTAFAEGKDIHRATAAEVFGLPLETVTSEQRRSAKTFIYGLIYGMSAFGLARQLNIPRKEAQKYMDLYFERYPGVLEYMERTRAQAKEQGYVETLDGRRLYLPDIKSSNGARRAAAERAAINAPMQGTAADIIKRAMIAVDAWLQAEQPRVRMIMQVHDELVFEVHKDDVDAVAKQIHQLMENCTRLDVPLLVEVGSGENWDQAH

Cc1cn([C@H]2CC[C@@H](COP(=O)(O)OP(=O)(O)OP(=O)(O)O)O2)c(=O)[nH]c1=O [ddTTP]
ddNTP Discrimination [1]: High | ddNTP Discrimination [2]: Low | ddNTP Discrimination [3]: Low | ddNTP Discrimination [4]: High | ddNTP Discrimination [5]: High | ddNTP Discrimination [6]: High | intensity of the bands in the presence of ddTTP relative to the absence of ddTTP ([7]; 30 µM ddTTP (20-fold molar excess over dTTP), 1.5 µM 4dNTPs): < 5% | ddNTP Discrimination [7, 12]: Low | ddNTP Discrimination [8]: Low | ddNTP Discrimination [9]: Low | ddNTP Discrimination [10]: Low | intensity of the bands in the presence versus the absence of ddTTP ([11]; 30 µM ddTTP (20-fold molar excess over dTTP), 1.5 µM 4dNTPs, within a factor of two): approximately the same intensity | ddNTP Discrimination [11, 12]: High
